Results taken from patent publication US20240352022A1, “GROUP OF IMB-C5 SERIES COMPOUNDS HAVING ANTI-CORONAVIRUS ACTIVITY AND APPLICATION THEREOF” (priority 2021, published 2024).

Tests used:
HCoV-229E [1] = test: anti-HCoV-229E activity in Huh7 cells by cytopathic effect (CPE) assay; assay type: cell-based, Human coronavirus HCoV-229E; conditions: Human coronavirus 229E, Huh-7, HCoV-229E 100 TCID50 in Huh7 cells, about 48 h
HCoV-229E [2] = test: N protein level of HCoV-229E in Huh7 cells (Western Blotting); assay type: cell-based, Human coronavirus HCoV-229E; conditions: 24 h
in vitro [3] = conditions: human
HCoV-229E [4] = test: anti-HCoV-229E activity in Huh7.5 cells by cytopathic effect (CPE) assay; assay type: cell-based, Human coronavirus HCoV-229E; conditions: Human coronavirus 229E, HCoV-229E 100 TCID50 in Huh7.5 cells, about 48 h
in vitro [5] = conditions: human; remark: listed apart in the source
HCoV-229E [6] = test: mRNA level of HCoV-229E N protein in Huh7 cells (RT-qPCR); assay type: cell-based, Human coronavirus HCoV-229E; conditions: 24 h
HCoV-229E [7] = test: dsRNA production during replication of HCoV-229E in Huh7 cells (immunofluorescence assay); assay type: cell-based, Human coronavirus HCoV-229E
HCoV-OC43 [8] = test: N protein level of HCoV-OC43 in C3A cells (Western Blotting); assay type: cell-based, Human coronavirus HCoV-OC43; conditions: 24 h
Protocol: The viral N protein level was determined after 24 h.
The effect of IMB-C5 and IMB-85 on N protein level of coronavirus HCoV-OC43 was determined. C3A cells were infected at a viral load of MOI=0.037, and simultaneously administered with IMB-C5 (10 μM), IMB-85 (10 μM, 2 μ, 0.4 μM and 0.08 μM) and MNP (the positive control, 15 μM). After 24 h, the protein was extracted for Western blotting.

HCoV-229E [9] = test: N protein level of HCoV-229E in Huh7.5 cells (Western Blotting); assay type: cell-based, Human coronavirus HCoV-229E; conditions: MOI=1, different concentrations, 24 h
[10] = CCK-8 cytotoxicity assay in Huh7 cells; assay type: cell-based; conditions: human, Huh7 hepatocellular carcinoma cells, CCK-8, 48 hours, read-out: TC50
Protocol: (§1) In order to determine the possible cytotoxicity of IMB-C5 and IMB-85, the CCK-8 assay was first used to detect the effect of the two compounds at different concentrations on viability of different cells 48 hours after administration.

[11] = CCK-8 cytotoxicity assay in Huh7.5 cells; assay type: cell-based; conditions: human, Huh7.5 hepatocellular carcinoma cells, CCK-8, 48 hours, read-out: TC50
Protocol: as §1

HCoV-229E [12] = test: time-of-addition experiment, HCoV-229E in Huh7 cells (Western blotting and immunofluorescence); assay type: cell-based, Human coronavirus HCoV-229E; parameters: dose or concentration left out as unconfirmed
HCoV-229E [13] = test: mRNA level of HCoV-229E N protein in Huh7.5 cells (RT-qPCR); assay type: cell-based, Human coronavirus HCoV-229E; conditions: MOI=0.035, three concentrations, 24 h
HCoV-OC43 [14] = test: mRNA level of HCoV-OC43 N protein in C3A cells (RT-qPCR); assay type: cell-based, Human coronavirus HCoV-OC43; conditions: MOI=0.023, three concentrations, 24 h
HCoV-OC43 [15] = test: time-of-addition experiment, HCoV-OC43 in C3A cells (immunofluorescence assay); assay type: cell-based, Human coronavirus HCoV-OC43; conditions: 50 μM
[16] = from reference [5]; cited from earlier work
in vitro [17] = conditions: African green monkey
[18] = MOI=17, IMB-85 3, 0.6 and 0.12 μM

SMILES	EC50 (HCoV-229E [1]) [µM]	N protein level of HCoV-229E (HCoV-229E [2]; MOI=1, 5 μM compound)	CC50 (in vitro [3]) [µM]	EC50 (HCoV-229E [4]) [µM]	CC50 (in vitro [5]) [µM]	further results
Cn1c(=O)c2c(nc(NCCO)n2Cc2ccc(Cl)cc2)n(C)c1=O [IMB-2-14]	1.43	inhibited HCoV-229E in Huh7 cells to different degrees	200	–	–	–
Cn1c(=O)c2c(nc(NCCO)n2Cc2ccc(OC(F)F)cc2)n(C)c1=O [IMB-2-8, 7-(4-(difluoromethoxy)benzyl)-8-((2-hydroxyethyl)amino)-1,3-dimethyl-3,7-dihydro-1H-purine-2,6-dione]	2.47	inhibited HCoV-229E in Huh7 cells to different degrees	> 200	–	–	–
Cn1c(=O)c2c(nc(NCCO)n2CC2CCOCC2)n(C)c1=O [IMB-3-19, ((2-hydroxyethyl)amino)-1,3-dimethyl-7-((tetrahydro-2H-pyran-4-yl)methyl)-3,7-dihydro-1H-purine-2,6-dione]	1.88	inhibited HCoV-229E in Huh7 cells to different degrees	> 200	–	–	–
Cn1c(=O)c2c(nc(NCCO)n2Cc2cccc(Cl)c2)n(C)c1=O [IMB-2-5, 7-(3-chlorobenzyl)-8-((2-hydroxyethyl)amino)-1,3-dimethyl-3,7-dihydro-1H-purine-2,6-dione]	1.33	inhibited HCoV-229E in Huh7 cells to different degrees	200	–	–	–
Cc1ccccc1Cn1c(NCCO)nc2c1c(=O)n(C)c(=O)n2C [IMB-68, 8-((2-hydroxyethyl)amino)-1,3-dimethyl-7-(2-methylbenzyl)-3,7-dihydro-1H-purine-2,6-dione]	1.43	inhibited HCoV-229E in Huh7 cells to different degrees	200	–	–	–
COC(=O)CNc1nc2c(c(=O)n(C)c(=O)n2C)n1Cc1cccc(OC)c1 [IMB-ZHC-2, methyl(7-(3-methoxybenzyl)-1,3-dimethyl-2,6-dioxo-2,3,6,7-tetrahydro-1H-purin-8-yl)glycinate]	28.7	–	> 129	43.1	> 129	–
CCCCc1ccc(Cn2c(NCCO)nc3c2c(=O)n(C)c(=O)n3C)cc1 [IMB-85, 7-(4-butylbenzyl)-8-((2-hydroxyethyl)amino)-1,3-dimethyl-3,7-dihydro-1H-purine-2,6-dione]	0.09	best activity in decreasing HCoV-229E N protein level	–	4.05	–	mRNA level of HCoV-229E N protein (HCoV-229E [6]; [18]): decreased mRNA and protein level of HCoV-229E N protein in Huh7 cells in a dose-dependent manner; dsRNA production during replication of HCoV-229E (HCoV-229E [7]; MOI=17, 24 h): inhibited dsRNA production; N protein level of HCoV-OC43 (HCoV-OC43 [8]; MOI=0.037, IMB-85 10, 2, 0.4 and 0.08 μM): decreased the HCoV-OC43 N protein level in C3A cells in a dose-dependent manner; N protein level of HCoV-229E (HCoV-229E [2]; MOI=1, different concentrations): decreased the HCoV-229E N protein level in Huh7 cells in a dose-dependent manner; protein level of HCoV-229E N protein (HCoV-229E [2]; [18]): decreased mRNA and protein level of HCoV-229E N protein in Huh7 cells in a dose-dependent manner; N protein level of HCoV-229E (HCoV-229E [9]): decreased the HCoV-229E N protein level in Huh7.5 cells in a dose-dependent manner; CC50 at 48 h [10]: > 200 µM; CC50 at 48 h [11]: > 200 µM; antiviral effect (N protein and dsRNA level), time of addition (HCoV-229E [12]; IMB-85, HCoV-229E MOI=10, administered 6 h or more after infection): diminished antiviral effect; antiviral effect (N protein and dsRNA level), time of addition (HCoV-229E [12]; IMB-85, HCoV-229E MOI=10, at the time of infection or within 1-5 h after infection): significant inhibitory effect on virus
Cn1c(=O)c2c(nc(NCCO)n2Cc2c(F)cccc2F)n(C)c1=O [IMB-93, 7-(2,6-difluorobenzyl)-8-((2-hydroxyethyl)amino)-1,3-dimethyl-3,7-dihydro-1H-purine-2,6-dione]	2.47	inhibited HCoV-229E in Huh7 cells to different degrees	> 200	–	–	–
Cn1c(=O)c2c(nc(NCCO)n2Cc2cccc(F)c2F)n(C)c1=O [IMB-82, 7-(2,3-difluorobenzyl)-8-((2-hydroxyethyl)amino)-1,3-dimethyl-3,7-dihydro-1H-purine-2,6-dione]	30.4	–	> 274	69.3	> 274	–
COc1cccc(Cn2c(NCc3ccc(F)c(C(F)(F)F)c3)nc3c2c(=O)n(C)c(=O)n3C)c1 [IMB-ZH-11, 8-((4-fluoro-3-(trifluoromethyl)benzyl)amino)-7-(3-methoxybenzyl)-1,3-dimethyl-3,7-dihydro-1H-purine-2,6-dione]	21	–	> 102	26.6	> 102	–
COc1cccc(Cn2c(NCCO)nc3c2c(=O)n(C)c(=O)n3C)c1 [IMB-C5]	6.57	–	> 139	26.8	> 139	mRNA level of HCoV-229E N protein (HCoV-229E [6]; MOI=0.035, three concentrations): decreased mRNA level of HCoV-229E N protein in both Huh7 and Huh7.5 cells in a dose-dependent manner; mRNA level of HCoV-229E N protein (HCoV-229E [13]): decreased mRNA level of HCoV-229E N protein in both Huh7 and Huh7.5 cells in a dose-dependent manner; dsRNA production during replication of HCoV-229E (HCoV-229E [7]; MOI=0.035, gradient concentrations, 24 h): had an inhibitory effect on dsRNA production; dsRNA production during replication of HCoV-229E (HCoV-229E [7]; MOI=17, 24 h): inhibited dsRNA production; mRNA level of HCoV-OC43 N protein (HCoV-OC43 [14]): decreased mRNA level of HCoV-OC43 N protein in C3A cells in a dose-dependent manner; N protein level of HCoV-OC43 (HCoV-OC43 [8]; MOI=0.023, three concentrations): inhibited the expression of the viral N protein in a dose-dependent manner; CC50 at 48 h [10]: > 200 µM; CC50 at 48 h [11]: > 200 µM; antiviral effect, time of addition (HCoV-OC43 [15]; HCoV-OC43 MOI=0.28, administered 1 h to 4 h after infection): better antiviral effect; antiviral effect, time of addition (HCoV-OC43 [15]; HCoV-OC43 MOI=0.28, administered 6 h or more after infection): greatly diminished antiviral effect; antiviral effect, time of addition (HCoV-OC43 [15]; HCoV-OC43 MOI=0.28, administered at the time of virus infection): most significant inhibitory effect on virus; effect on blood lipids and atherosclerotic plaque formation [16]: good effect on lowering blood lipids and inhibiting atherosclerotic plaque formation; CC50 (in vitro [17]): 493 µM
Cn1c(=O)c2c(nc(NCCO)n2Cc2ccc(C(C)(C)C)cc2)n(C)c1=O [IMB-84, 7-(4-(tert-butyl)benzyl)-8-((2-hydroxyethyl)amino)-1,3-dimethyl-3,7-dihydro-1H-purine-2,6-dione]	15.4	–	> 259	12.3	> 259	–
COc1cccc(Cn2c(NC[C@H](C)O)nc3c2c(=O)n(C)c(=O)n3C)c1 [IMB-ZHC-7, (S)-8-((2-hydroxypropyl)amino)-7-(3-methoxybenzyl)-1,3-dimethyl-3,7-dihydro-1H-purine-2,6-dione]	19.2	–	> 134	44.7	> 134	–
CC(C)C(=O)OC[C@H]1O[C@@H](n2ccc(NO)nc2=O)[C@H](O)[C@@H]1O [Molnupiravir, reference compound]	1.92	–	> 200	4.28	> 200	–
Cn1c(=O)c2c(nc(NCCO)n2Cc2ccccc2)n(C)c1=O [IMB-ZHB-13x, 7-benzyl-8-((2-hydroxyethyl)amino)-1,3-dimethyl-3,7-dihydro-1H-purine-2,6-dione]	5.62	–	> 152	38.5	> 152	–
Cn1c(=O)c2c(nc(NCCO)n2Cc2cccc(OC(F)(F)F)c2)n(C)c1=O [IMB-92, 8-((2-hydroxyethyl)amino)-1,3-dimethyl-7-(3-(trifluoromethoxy)benzyl)-3,7-dihydro-1H-purine-2,6-dione]	0.64	inhibited HCoV-229E in Huh7 cells to different degrees	144	–	–	–
